Measurements: ChEMBL document CHEMBL1130583, “Benzylamine-based selective and orally bioavailable inhibitors of thrombin” (Bioorg Med Chem Lett, 1998)

How the values were obtained:
Rattus norvegicus = assay: In vivo antithrombotic activity was tested in rat thromboplastin-induced model of venous thrombosis at an intravenous bolus of 5 mg/Kg; type: functional
Prothrombin = Prothrombin (Homo sapiens, UniProt P00734); assay: Binding affinity towards human thrombin
Serine protease 1 = target: T1, Serine protease 1 (Bos taurus, UniProt P00760); assay: Binding affinity towards bovine trypsin was evaluated in vitro
T1 sequence (P00760 whole entry): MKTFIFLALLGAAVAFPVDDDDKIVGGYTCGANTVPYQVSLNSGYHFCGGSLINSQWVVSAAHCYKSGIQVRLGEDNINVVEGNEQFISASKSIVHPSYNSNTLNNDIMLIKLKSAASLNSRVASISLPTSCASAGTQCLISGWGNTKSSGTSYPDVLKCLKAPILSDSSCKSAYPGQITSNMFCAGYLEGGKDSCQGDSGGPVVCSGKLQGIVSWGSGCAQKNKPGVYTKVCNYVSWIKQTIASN

[1] = Time taken by the compound to achieve maximum concentration in rat plasma at 30 mg/Kg upon oral administration.; type: ADME, organism-based
[2] = Maximum concentration in rat plasma at 30 mg/Kg upon oral administration.; type: ADME, organism-based; set-up: dose 30 mg/Kg, route oral
[3] = Apparent permeability coefficient (Papp) was determined in human Caco-2 cell monolayer (n = 3); type: ADME, cell-based

Compound	inhibition in vivo at 5 mg/kg (Rattus norvegicus)	Ki (Prothrombin)	Ki (Serine protease 1)	Tmax [1]	Cmax [2]	Papp [3]
CN(C(=O)[C@H](Cc1ccc(CN)cc1)NS(=O)(=O)c1ccc2ccccc2c1)C1CCCC1	17.6%	0.0183 µM	13.6 µM	–	–	–
NCc1ccc(C[C@H](NS(=O)(=O)c2ccc3ccccc3c2)C(=O)N2CCCCC2)cc1	–	0.0031 µM	–	–	–	–
CN(C(=O)[C@H](Cc1ccc(CN)cc1)NS(=O)(=O)c1ccc2cc3ccccc3cc2c1)C1CCCC1	45.4%	0.0057 µM	3.3 µM	–	–	–
CN(C(=O)[C@H](Cc1ccc(CN)cc1)NS(=O)(=O)c1ccc(C2CCCCC2)cc1)C1CCCC1	23.8%	0.0201 µM	4.8 µM	–	–	–
CN(C(=O)[C@H](Cc1ccc(CN)cc1)NS(=O)(=O)c1ccc2c(c1)CCCCC2)C1CCCC1	39.4%	0.0033 µM	6.3 µM	1.33 h	3.5 µM	–
CN(C(=O)[C@H](Cc1ccc(CN)cc1)NS(=O)(=O)c1ccc(-c2ccccn2)s1)C1CCCC1	–	0.107 µM	–	–	–	–
CN(C(=O)[C@H](Cc1ccc(CN)cc1)NS(=O)(=O)c1ccc2c(c1)CCCC2)C1CCCC1	16.4%	0.0101 µM	9.8 µM	–	–	–
CN(C)c1cccc2c(S(=O)(=O)N[C@@H](Cc3ccc(CN)cc3)C(=O)N(C)C3CCCC3)cccc12	35.5%	0.0109 µM	17.1 µM	1.6 h	3.3 µM	–
COc1ccc2cc(S(=O)(=O)N[C@@H](Cc3ccc(CN)cc3)C(=O)N(C)C3CCCC3)ccc2c1	44.1%	0.0066 µM	14.2 µM	2.33 h	2.8 µM	10.7 ×10⁻⁶ cm/s
CN(C(=O)[C@H](Cc1ccc(C(=N)N)cc1)NS(=O)(=O)c1ccc2ccccc2c1)C1CCCC1	–	–	–	–	–	0.2 ×10⁻⁶ cm/s
CN(C(=O)[C@H](Cc1ccc(C(=N)NN)cc1)NS(=O)(=O)c1ccc2ccccc2c1)C1CCCC1	–	–	–	–	–	1.7 ×10⁻⁶ cm/s
CCCc1ccc(S(=O)(=O)N[C@@H](Cc2ccc(CN)cc2)C(=O)N(C)C2CCCC2)cc1	–	0.0096 µM	9.04 µM	–	–	–
CN(C(=O)[C@H](Cc1ccc(CN)cc1)NS(=O)(=O)c1ccc(-c2ccccc2)cc1)C1CCCC1	–	0.0605 µM	–	–	–	–
